# Measured values from patent US11155539B2, “4-pyridinylmethyl-morpholine derivatives and the use thereof as medicament” (Boehringer Ingelheim International GmbH, priority 2018, dated 2021).
# Tests used:
# MDR1 (P-gp) = biological target: T1, MDR1 (P-gp) (Homo sapiens, UniProt P08183); assay: MDCK assay P-gp (permeability across MDCK-MDR1 monolayers); assay type: in vitro ADME; settings: for Papp A→B at 2 h: apical-to-basal, MDCK-MDR1 monolayers, pH 7.4; for efflux ratio at 2 h: pH 7.4, Papp (b-a) divided by Papp (a-b), MDCK-MDR1, read-out: efflux ratio PEBA/PEAB
# T1 construct: expressed in transfected cells; host or cells: MDCKII (Madin-Darby canine kidney)
# Experimental: The MDCK assays provide information on the potential of a compound to pass the blood brain barrier. Permeability measurements across polarized, confluent MDCK-MDR1 cell monolayers grown on permeable filter supports are used as an in vitro absorption model: apparent permeability coefficients (PE) of the compounds across the MDCK-MDR1 cell monolayers are measured (pH 7.4, 37° C.) in apical-to-basal (AB) and basal-to-apical (BA) transport direction. The AB permeability (PEAB) represents drug absorption from the blood into the brain and the BA permeability (PEBA) drug efflux from the brain back into the blood via both, passive permeability as well as active transport mechanisms mediated by efflux and uptake transporters that are expressed on the MDCK-MDR1 cells, predominantly by the overexpressed human MDR1. Identical or similar permeabilities in both transport directions indicate passive permeation (PEBA/PEAB≤1), vectorial permeability points to additional active transport mechanisms. Higher PEBA than PEAB (PEBA/PEAB>5) indicates the involvement of active efflux mediated by MDR1, which might compromise the goal to achieve sufficient brain exposure. Therefore, this assay provides valuable support for selection of compounds applicable for further in vivo testing. High permeability not limited by efflux at the blood brain barrier is a favorable characteristic for compounds that are to be used for drugs acting primarily in the CNS.
# Apparent permeability coefficients (Papp) of the compounds across the MDCK-MDR1 monolayers (MDCKII cells transfected with human MDR1 cDNA expression plasmid) are measured in apical-to-basal (AB) and basal-to-apical (BA) direction. MDCK-MDR1 cells (6×10^5 cells/cm^2) are seeded on filter inserts (Corning, Transwell, polycarbonate, 0.4 μm pore size) and cultured for 9 to 10 days. Compounds dissolved in DMSO stock solution (1-20 mM) are diluted with HTP-4 aqueous buffer (128.13 mM NaCl, 5.36 mM KCl, 1 mM MgSO4, 1.8 mM CaCl2, 4.17 mM NaHCO3, 1.19 mM Na2HPO4, 0.41 mM NaH2PO4, 15 mM HEPES, 20 mM glucose, pH 7.4) supplemented with 0.25% BSA to prepare the transport solutions (final concentration: 1 or 10 μM, final DMSO<=0.5%). The transport solution is applied to the apical or basolateral donor side for measuring A-B or B-A permeability, respectively. The receiver side contains HTP-4 buffer supplemented with 0.25% BSA. Samples are collected at the start and end of experiment from the donor and at various time intervals for up to 2 hours also from the receiver side for concentration measurement by HPLC-MS/MS (RapidFire High-throughput MS System (Agilent) coupled to QTrap 6500 (AB Sciex) or TSQ Vantage (Thermo Scientific)). Sampled receiver volumes are replaced with fresh receiver solution. Efflux ratio is calculated dividing the Papp (b-a) values by the Papp (a-b) values.
# [1] = Metabolic stability in pooled human liver microsomes; assay type: in vitro ADME; settings: pH 7.6, 1 μM compound, 37° C., NADPH, read-out: Half-life - t½ human liver microsomes
# Source text: Stability in human liver microsomes refers to the susceptibility of compounds to biotransformation in the context of selecting and/or designing drugs with favorable pharmacokinetic properties. The primary site of metabolism for many drugs is the liver. Human liver microsomes contain the cytochrome P450s (CYPs), and thus represent a model system for studying drug metabolism in vitro Enhanced stability in human liver microsomes is associated with several advantages, including increased bioavailability and adequate half-life, which can enable lower and less frequent dosing of patients. Thus, enhanced stability in human liver microsomes is a favorable characteristic for compounds that are to be used for drugs.
# The metabolic degradation of the test compound was assayed at 37° C. with pooled human liver microsomes. The final incubation volume of 60 μl per time point contains TRIS buffer pH 7.6 at room temperature (0.1 M), magnesium chloride (5 mM aqueous solution), microsomal protein (1 mg/mL for human) and the test compound at a final concentration of 1 μM. Following a short preincubation period at 37° C., the reactions were initiated by addition of betanicotinamide adenine dinucleotide phosphate, reduced form (NADPH, 1 mM), and terminated by transferring an aliquot into acetonitril after different time points. After centrifugation (10000 g, 5 min), an aliquot of the supernatant was assayed by HPLC-MS/MS as described above for the MDCK assay P-gp for the amount of parent compound. The half-life was determined by the slope of the semi-logarithmic plot of the concentration-time profile.
# T1 sequence (P08183 whole entry): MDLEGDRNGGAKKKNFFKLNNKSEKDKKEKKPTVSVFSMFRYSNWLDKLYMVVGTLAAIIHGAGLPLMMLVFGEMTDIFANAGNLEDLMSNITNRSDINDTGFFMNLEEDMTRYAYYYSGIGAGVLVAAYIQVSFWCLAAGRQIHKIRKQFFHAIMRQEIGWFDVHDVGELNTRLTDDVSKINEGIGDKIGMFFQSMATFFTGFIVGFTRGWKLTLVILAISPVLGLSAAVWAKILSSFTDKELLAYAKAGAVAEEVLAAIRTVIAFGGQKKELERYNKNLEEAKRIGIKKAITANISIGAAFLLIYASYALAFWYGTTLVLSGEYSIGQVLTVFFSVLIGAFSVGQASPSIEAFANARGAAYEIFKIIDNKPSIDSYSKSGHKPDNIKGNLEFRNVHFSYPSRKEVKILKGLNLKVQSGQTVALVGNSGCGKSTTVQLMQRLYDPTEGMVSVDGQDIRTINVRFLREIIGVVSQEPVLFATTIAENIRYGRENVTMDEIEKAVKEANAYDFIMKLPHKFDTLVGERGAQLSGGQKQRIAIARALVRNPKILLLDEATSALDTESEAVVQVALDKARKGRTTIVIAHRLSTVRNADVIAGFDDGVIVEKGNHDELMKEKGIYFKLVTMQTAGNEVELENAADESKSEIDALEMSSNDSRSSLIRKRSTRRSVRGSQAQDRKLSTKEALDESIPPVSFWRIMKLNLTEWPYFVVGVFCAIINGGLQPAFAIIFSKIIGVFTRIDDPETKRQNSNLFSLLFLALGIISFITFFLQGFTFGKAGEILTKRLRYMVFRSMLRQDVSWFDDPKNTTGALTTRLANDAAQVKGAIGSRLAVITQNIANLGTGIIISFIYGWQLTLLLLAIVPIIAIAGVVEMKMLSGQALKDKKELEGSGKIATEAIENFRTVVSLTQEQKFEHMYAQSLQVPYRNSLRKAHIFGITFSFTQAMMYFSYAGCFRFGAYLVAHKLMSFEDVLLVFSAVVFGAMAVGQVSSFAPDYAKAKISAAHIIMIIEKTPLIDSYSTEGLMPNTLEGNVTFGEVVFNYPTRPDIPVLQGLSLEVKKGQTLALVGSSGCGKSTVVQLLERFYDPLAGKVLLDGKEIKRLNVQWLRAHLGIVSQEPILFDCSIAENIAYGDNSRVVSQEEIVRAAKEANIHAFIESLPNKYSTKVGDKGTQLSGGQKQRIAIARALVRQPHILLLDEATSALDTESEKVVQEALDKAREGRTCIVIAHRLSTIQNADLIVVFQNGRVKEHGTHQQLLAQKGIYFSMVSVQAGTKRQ
SMILES,Papp A→B at 2 h (MDR1 (P-gp)) [×10⁻⁶ cm/s],efflux ratio at 2 h (MDR1 (P-gp)),half-life at 1 μM [1] [h]
CNC(=O)[C@@H]1CN(Cc2ccc(Oc3ccc(F)cc3)cn2)CCO1 [Example 30],86,0.5,> 2.17
CNC(=O)[C@@H]1CN(Cc2ccc(Oc3ccc(C)cc3)nc2)CCO1 [Example 29],58,0.8,> 2.17
CNC(=O)[C@@H]1CN(Cc2ccc(Oc3ccccc3F)nc2)CCO1 [Example 19],75,0.7,> 2.17
CNC(=O)[C@@H]1CN(Cc2ccc(Oc3ccccc3Cl)nc2)CCO1 [Example 17],67,0.6,> 2.17
